Assay results as given in US8058295B2, “Cystic fibrosis transmembrane conductance regulator protein inhibitors and uses thereof” (The Regents of the University of California, priority 2002, dated 2011).

Key:
[1] = biological target: T1, Na^+/H^+ exchanger (NHE3) (Homo sapiens, UniProt P48764); assay: Na^+/H^+ exchanger block; conditions: 5 μM
T1 sequence (P48764 26-834): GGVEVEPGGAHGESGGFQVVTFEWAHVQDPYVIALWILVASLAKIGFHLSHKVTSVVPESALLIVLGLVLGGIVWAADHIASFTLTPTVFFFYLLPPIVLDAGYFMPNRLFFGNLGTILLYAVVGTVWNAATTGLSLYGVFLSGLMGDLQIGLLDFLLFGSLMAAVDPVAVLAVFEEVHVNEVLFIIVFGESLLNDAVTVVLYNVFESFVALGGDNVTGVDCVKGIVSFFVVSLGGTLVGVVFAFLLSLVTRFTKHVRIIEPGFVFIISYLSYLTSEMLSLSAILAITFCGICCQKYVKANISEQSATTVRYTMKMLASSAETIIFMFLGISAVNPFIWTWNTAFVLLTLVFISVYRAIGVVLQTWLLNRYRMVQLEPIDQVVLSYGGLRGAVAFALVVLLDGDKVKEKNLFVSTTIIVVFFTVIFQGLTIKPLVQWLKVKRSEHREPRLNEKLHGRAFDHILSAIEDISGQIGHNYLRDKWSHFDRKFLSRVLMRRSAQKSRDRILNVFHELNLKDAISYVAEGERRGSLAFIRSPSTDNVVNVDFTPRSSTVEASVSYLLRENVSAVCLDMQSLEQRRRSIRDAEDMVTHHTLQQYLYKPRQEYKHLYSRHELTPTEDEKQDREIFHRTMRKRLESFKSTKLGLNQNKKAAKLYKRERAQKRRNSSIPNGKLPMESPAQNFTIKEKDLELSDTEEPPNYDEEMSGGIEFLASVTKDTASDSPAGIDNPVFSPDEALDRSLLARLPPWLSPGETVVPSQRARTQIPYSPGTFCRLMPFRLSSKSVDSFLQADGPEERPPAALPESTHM

[2] = biological target: T2, Cl^−/HCO3^− exchanger (AE1) (Homo sapiens, UniProt P02730); assay: Cl^−/HCO3^− exchanger block; conditions: 5 μM
T2 sequence (P02730 1-911): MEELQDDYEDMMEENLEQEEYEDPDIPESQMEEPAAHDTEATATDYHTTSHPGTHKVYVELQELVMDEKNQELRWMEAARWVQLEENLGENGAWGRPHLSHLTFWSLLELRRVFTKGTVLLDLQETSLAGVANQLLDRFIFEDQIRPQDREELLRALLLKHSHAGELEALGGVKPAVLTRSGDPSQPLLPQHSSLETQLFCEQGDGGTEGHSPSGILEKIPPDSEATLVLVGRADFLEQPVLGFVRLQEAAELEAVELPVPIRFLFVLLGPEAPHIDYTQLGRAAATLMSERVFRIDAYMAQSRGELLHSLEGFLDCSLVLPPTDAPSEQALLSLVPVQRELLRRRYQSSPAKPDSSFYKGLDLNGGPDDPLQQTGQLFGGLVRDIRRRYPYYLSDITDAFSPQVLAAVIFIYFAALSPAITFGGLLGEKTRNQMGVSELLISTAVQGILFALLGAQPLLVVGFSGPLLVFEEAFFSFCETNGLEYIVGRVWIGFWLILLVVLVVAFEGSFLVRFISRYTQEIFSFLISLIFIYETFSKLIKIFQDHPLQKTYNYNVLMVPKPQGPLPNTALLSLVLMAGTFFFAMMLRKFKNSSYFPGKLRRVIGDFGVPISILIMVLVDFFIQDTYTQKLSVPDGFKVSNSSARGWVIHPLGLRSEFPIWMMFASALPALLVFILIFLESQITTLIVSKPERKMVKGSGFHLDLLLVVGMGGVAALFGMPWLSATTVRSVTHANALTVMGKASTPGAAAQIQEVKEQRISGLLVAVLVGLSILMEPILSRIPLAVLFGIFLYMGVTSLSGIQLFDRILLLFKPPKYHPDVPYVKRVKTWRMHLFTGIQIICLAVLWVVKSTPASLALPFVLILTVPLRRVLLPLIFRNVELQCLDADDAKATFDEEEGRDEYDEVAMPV

[3] = tested on: Calcium-sensitive Cl^− channels; assay: UTP-stimulated Ca^2+-dependent Cl^− secretion, short-circuit current in human bronchial epithelial cells; assay type: cell-based
Excerpt: Two non-CFTR Cl^− channels were studied.

phosphatase activity = assay: Phosphatase assay; assay type: cell-based; conditions: 5 μM

O=C(O)c1ccc(/C=C2\SC(=S)N(c3cccc(C(F)(F)F)c3)C2=O)cc1 [CFTRinh-172, 3-[(3-trifluoromethyl)phenyl]-5-[(4-carboxyphenyl)methylene]-2-thioxo-4-thiazolidinone] was tested, and the “block of Na^+/H^+ exchanger (NHE3)” value [1] was “did not block”, the “block of Cl^−/HCO3^− exchanger (AE1)” value [2] was “did not block” and the “inhibition of Ca^2+ activated secretion” value ([3]; 5 μM, UTP 100 μM) was “did not inhibit”. For the same compound, the “maximal UTP-dependent short-circuit current” value ([3]; in presence of 5 μM inhibitor (SE, n=4)) was 10.0±0.2 μA/cm^2 and the “effect on phosphatase activity” value (phosphatase activity) was “did not affect”.
